These results are taken from patent US20240270821A1, “GIP/GLP1/GCG TRI-RECEPTOR AGONISTS AND USES THEREOF” (priority 2023, published 2024).

Holding throughout (assay type): cell-based
Test [1] has as its target T1, hGIPR (Homo sapiens, UniProt P48546).
T1 sequence (P48546 22-466): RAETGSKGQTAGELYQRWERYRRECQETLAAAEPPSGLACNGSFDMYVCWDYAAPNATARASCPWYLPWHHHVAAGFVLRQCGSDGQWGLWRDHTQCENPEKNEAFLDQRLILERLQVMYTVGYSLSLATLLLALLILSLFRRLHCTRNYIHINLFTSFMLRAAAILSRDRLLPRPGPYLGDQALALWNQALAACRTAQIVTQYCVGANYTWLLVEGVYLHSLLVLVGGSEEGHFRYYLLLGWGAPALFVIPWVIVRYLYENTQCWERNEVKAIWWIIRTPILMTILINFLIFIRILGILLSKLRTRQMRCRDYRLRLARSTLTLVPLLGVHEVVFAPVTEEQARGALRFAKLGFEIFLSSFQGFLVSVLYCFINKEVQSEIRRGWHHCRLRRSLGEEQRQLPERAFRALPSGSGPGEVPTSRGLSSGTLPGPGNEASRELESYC
Kind of test: Functional cAMP activity in the presence of 1% HSA. Particulars: read-out: cAMP Rel EC50, hGIPR.

Test [2] concerns the target T2, hGLP-1R (Homo sapiens, UniProt P43220). Kind of test: Functional cAMP activity in the presence of 1% HSA. The settings on record: read-out: cAMP Rel EC50, hGLP-1R.
Another test has as its target human GcgR (Homo sapiens, UniProt P47871). Kind of test: Functional cAMP activity in the presence of 1% HSA. The settings on record: read-out: cAMP Rel EC50, hGcgR.
For test [3], the target named is T1, hGIPR. Kind of test: Functional cAMP activation in the presence of 0.1% casein (no HSA). The settings on record: read-out: Relative cAMP EC50, hGIPR.
For test [4], the target named is T2, hGLP-1R. The description is as above. Particulars: read-out: Relative cAMP EC50, hGLP-1R.
In the next test the target is hGcgR (Homo sapiens, UniProt P47871). Described as above. The settings on record: read-out: Relative cAMP EC50, hGcgR.
[5] abbreviates: in the presence of 0.1% casein (no HSA), geometric mean.

Read-outs that look alike come from different tables or passages of the source. Starred links: 1 amine or outer side, 2 acyl side, 3 side chain; linkers in the order of their positions; H or OH if unused. Non-standard residues stand in square brackets, D forms with d. Residues, ends and D or L forms follow the SMILES beside them. Groups on a side chain read outwards from the residue. No end group written: not given here. *: point of attachment. C20 diacid = O=C(O)CCCCCCCCCCCCCCCCCCC(=O)*; C18 diacid = O=C(O)CCCCCCCCCCCCCCCCC(=O)*; αMePhe(2-F) = C[C@](N)(Cc1ccccc1F)C(=O)O; γGlu = O=C(O)[C@H](CCC(=O)[*:2])N[*:1]; αMe4Pal = C[C@](N)(Cc1ccncc1)C(=O)O; αMeY = C[C@](N)(Cc1ccc(O)cc1)C(=O)O; αMeF = C[C@](N)(Cc1ccccc1)C(=O)O; 4Pal = N[C@@H](Cc1ccncc1)C(=O)O; αMeL = CC(C)C[C@](C)(N)C(=O)O; αMeS = C[C@](N)(CO)C(=O)O; Orn = NCCC[C@H](N)C(=O)O; AEEA = NCCOCCOCC(=O)O; Aib = CC(C)(N)C(=O)O
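Throughout, for Relative cAMP EC50, hGIPR: intracellular cAMP rise after 30 min at 37 °C read by HTRF against a standard curve, scaled between buffer alone (0%) and top control ligand concentration (100%), four-parameter fit.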
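Throughout, for Relative cAMP EC50, hGLP-1R: intracellular cAMP rise after 30 min at 37 °C read by HTRF, normalized between buffer only (0%) and maximal control ligand (100%), four-parameter variable-slope fit.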
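Throughout, for Relative cAMP EC50, hGcgR: intracellular cAMP rise after 30 min at 37 °C, read by HTRF against a cAMP standard curve, scaled from buffer only (0%) to maximal control ligand response (100%).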

hGcgR, sequence (P47871 26-477): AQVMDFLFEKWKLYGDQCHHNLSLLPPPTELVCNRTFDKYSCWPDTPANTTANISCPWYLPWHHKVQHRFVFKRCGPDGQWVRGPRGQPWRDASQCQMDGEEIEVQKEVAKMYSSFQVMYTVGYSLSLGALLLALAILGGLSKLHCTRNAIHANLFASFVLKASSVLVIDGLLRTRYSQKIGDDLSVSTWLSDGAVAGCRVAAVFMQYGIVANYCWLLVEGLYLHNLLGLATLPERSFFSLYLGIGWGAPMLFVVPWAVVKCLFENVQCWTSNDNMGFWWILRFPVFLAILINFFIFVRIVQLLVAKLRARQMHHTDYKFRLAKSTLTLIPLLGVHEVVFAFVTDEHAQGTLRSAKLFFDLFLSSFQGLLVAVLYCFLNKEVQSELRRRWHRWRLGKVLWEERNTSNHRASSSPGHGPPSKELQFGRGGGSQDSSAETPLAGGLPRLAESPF
human GcgR, sequence (P47871 26-477): as above
T2 sequence (P43220 24-463): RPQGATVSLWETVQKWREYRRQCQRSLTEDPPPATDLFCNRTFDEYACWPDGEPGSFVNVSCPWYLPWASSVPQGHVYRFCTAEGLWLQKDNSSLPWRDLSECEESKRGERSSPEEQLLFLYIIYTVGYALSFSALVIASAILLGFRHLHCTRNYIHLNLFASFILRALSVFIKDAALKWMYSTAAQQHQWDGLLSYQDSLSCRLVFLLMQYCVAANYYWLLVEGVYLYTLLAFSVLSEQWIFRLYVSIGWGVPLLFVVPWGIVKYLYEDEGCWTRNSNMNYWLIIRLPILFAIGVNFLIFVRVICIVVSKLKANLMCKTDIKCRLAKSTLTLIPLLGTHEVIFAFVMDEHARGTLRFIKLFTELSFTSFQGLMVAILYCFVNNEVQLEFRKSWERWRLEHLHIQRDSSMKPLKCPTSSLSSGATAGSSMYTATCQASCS

As a reminder, the EC50 is the concentration needed to bring the measured effect to its halfway point. As for `CC[C@H](C)[C@H](NC(=O)[C@H](CC(C)C)NC(=O)[C@H](Cc1ccc(O)cc1)NC(=O)[C@@H](CCC(=O)O)NC(=O)[C@@H](NC(=O)[C@H](Cc1ccccc1)NC(=O)[C@H](CCCN)NC(=O)C(C)(C)NC(=O)[C@H](CCC(N)=O)NC(=O)[C@H](C)NC(=O)[C@H](CCCCNC(=O)CC[C@H](NC(=O)CC[C@H](NC(=O)CCCCCCCCCCCCCCCCC(=O)O)C(=O)O)C(=O)O)NC(=O)[C@H](CCCN)NC(=O)[C@H](CC(=O)O)NC(=O)[C@H](CC(C)C)NC(=O)[C@](C)(CC(C)C)NC(=O)[C@@H](NC(=O)[C@](C)(CO)NC(=O)[C@H](Cc1ccncc1)NC(=O)[C@H](CC(=O)O)NC(=O)[C@H](CO)NC(=O)[C@@H](NC(=O)[C@](C)(Cc1ccccc1F)NC(=O)[C@@H](NC(=O)CNC(=O)[C@H](CCC(N)=O)NC(=O)C(C)(C)NC(=O)[C@@H](N)Cc1ccc(O)cc1)[C@@H](C)O)[C@@H](C)O)[C@@H](C)CC)[C@@H](C)CC)C(=O)N[C@@H](CCC(=O)O)C(=O)NCC(=O)NCC(=O)N1CCC[C@H]1C(=O)N[C@@H](CO)C(=O)N[C@@H](CO)C(=O)NCC(=O)N[C@@H](CCC(=O)O)C(=O)N1CCC[C@H]1C(=O)N1CCC[C@H]1C(=O)N1CCC[C@H]1C(=O)N[C@@H](CCC(=O)O)C(N)=O` [Example 448] (H-Y[Aib]QGT[αMePhe(2-F)]TSD[4Pal][αMeS]I[αMeL]LD[Orn]K([γGlu-γGlu-C18 diacid])AQ[Aib][Orn]FI[dE]YLIEGGPSSGEPPPE-NH2), the EC50 amounted to 1.35 nM on hGIPR [1]; 19.5 nM at hGLP-1R [2]; 302 nM on human GcgR; 0.0171 nM at hGIPR [3]; 0.336 nM on hGLP-1R [4]; 4.54 nM on hGcgR.

`CC[C@H](C)[C@H](NC(=O)[C@H](Cc1ccccc1)NC(=O)[C@H](C)NC(=O)C(C)(C)NC(=O)[C@H](CCC(N)=O)NC(=O)[C@H](C)NC(=O)[C@H](CCCCNC(=O)COCCOCCNC(=O)CC[C@H](NC(=O)CCCCCCCCCCCCCCCCC(=O)O)C(=O)O)NC(=O)[C@H](CCCCN)NC(=O)[C@H](CC(=O)O)NC(=O)[C@H](CC(C)C)NC(=O)[C@](C)(CC(C)C)NC(=O)[C@@H](NC(=O)[C@H](CO)NC(=O)[C@H](Cc1ccc(O)cc1)NC(=O)[C@H](CC(=O)O)NC(=O)[C@H](CO)NC(=O)[C@@H](NC(=O)[C@](C)(Cc1ccccc1)NC(=O)[C@@H](NC(=O)CNC(=O)[C@H](CCC(N)=O)NC(=O)C(C)(C)NC(=O)[C@@H](N)Cc1ccc(O)cc1)[C@@H](C)O)[C@@H](C)O)[C@@H](C)CC)C(=O)N[C@@H](CCC(=O)O)C(=O)N[C@@H](Cc1ccc(O)cc1)C(=O)N[C@@H](CC(C)C)C(=O)N[C@@H](CCC(=O)O)C(=O)N[C@@H](CCC(=O)O)C(=O)NCC(=O)NCC(=O)N1CCC[C@H]1C(=O)N[C@@H](CO)C(=O)N[C@@H](CO)C(=O)NCC(=O)N[C@@H](C)C(=O)N1CCC[C@H]1C(=O)N1CCC[C@H]1C(=O)N1CCC[C@H]1C(=O)N[C@@H](CO)C(N)=O` [Example 394] (H-Y[Aib]QGT[αMeF]TSDYSI[αMeL]LDKK([AEEA-γGlu-C18 diacid])AQ[Aib]AFIEYLEEGGPSSGAPPPS-NH2): the 50% effective concentration (EC50) on hGIPR [1] worked out at 7.22 nM; at hGLP-1R [2], 33.2 nM; on human GcgR, 1090 nM; on hGIPR [3], 0.018 nM; on hGLP-1R [4], 0.226 nM; on hGcgR it was 5.63 nM.

For “H-Y[Aib]QGT[αMePhe(2-F)]TSD[4Pal]SI[αMeL]LD[Orn]K([AEEA-γGlu-C18 diacid])AQ[αMe4Pal][Orn]FI[dE][αMeY]LIEGGPSSGEPPPEAE-NH2 [Example 676]”, the EC50 at hGIPR [1] is 1.07 nM; on hGLP-1R [2], 24.4 nM; at human GcgR, 208 nM; at hGIPR [3], 0.0106 nM; on hGLP-1R [4], 0.267 nM; at hGcgR, 2.34 nM.

For “H-Y[Aib]QGTFTSDYSI[αMeL]LDKQAAK([AEEA-AEEA-γGlu-C20 diacid])QFVEWLIA[Aib]GPSSGEPPPSEG-NH2 [Example 326]”, the concentration for a half-maximal effect (EC50) was found to be 83.7 nM at hGIPR [1]; 172 nM on hGLP-1R [2]; 1500 nM on human GcgR; 0.3 nM at hGIPR [3] (setting [5]); 0.555 nM on hGLP-1R [4] (setting [5]); 5.34 nM at hGcgR (setting [5]).

Regarding `CC[C@H](C)[C@H](NC(=O)[C@H](Cc1ccccc1)NC(=O)[C@H](C)NC(=O)C(C)(C)NC(=O)[C@H](CCC(N)=O)NC(=O)[C@H](C)NC(=O)[C@H](CCCCNC(=O)COCCOCCNC(=O)CC[C@H](NC(=O)CCCCCCCCCCCCCCCCC(=O)O)C(=O)O)NC(=O)[C@H](CCCCN)NC(=O)[C@H](CC(=O)O)NC(=O)[C@H](CC(C)C)NC(=O)[C@](C)(CC(C)C)NC(=O)[C@H](CCCN)NC(=O)[C@H](CO)NC(=O)[C@H](Cc1ccccc1)NC(=O)[C@H](CC(=O)O)NC(=O)[C@H](CO)NC(=O)[C@@H](NC(=O)[C@H](Cc1ccccc1)NC(=O)[C@@H](NC(=O)CNC(=O)[C@H](CCC(N)=O)NC(=O)C(C)(C)NC(=O)[C@@H](N)Cc1ccc(O)cc1)[C@@H](C)O)[C@@H](C)O)C(=O)N[C@@H](CCC(=O)O)C(=O)N[C@@H](Cc1ccc(O)cc1)C(=O)N[C@@H](CC(C)C)C(=O)N[C@@H](CC(C)C)C(=O)N[C@@H](CCC(=O)O)C(=O)N[C@H](C)C(=O)NCC(=O)N1CCC[C@H]1C(=O)N[C@@H](CO)C(=O)N[C@@H](CO)C(=O)NCC(=O)N[C@@H](C)C(=O)N1CCC[C@H]1C(=O)N1CCC[C@H]1C(=O)N1CCC[C@H]1C(=O)N[C@@H](CCC(=O)O)C(=O)NCC(=O)N[C@@H](CCC(=O)O)C(N)=O` [Example 206], the 50% effective concentration (EC50) is 38.8 nM on hGIPR [1]; 372 nM on hGLP-1R [2]; 545 nM at human GcgR; 0.224 nM on hGIPR [3] (setting [5]); 2.77 nM on hGLP-1R [4] (setting [5]); 2.2 nM on hGcgR (setting [5]).

For “Y[Aib]QGTFTSD[4Pal]SQ[αMeL]LD[Orn]K([γGlu-γGlu-C18 diacid])AQ[αMe4Pal]AFIEYLIAGGPSSGAPPPSGSEE-NH2 [Example 1031]”, the EC50 at hGIPR [1] worked out at 17.3 nM; on hGLP-1R [2], 152 nM; at human GcgR, 1200 nM; on hGIPR [3] (setting [5]) it was 0.146 nM; at hGLP-1R [4] (setting [5]), 1.15 nM; at hGcgR (setting [5]), 6.98 nM.

As for “Y[Aib]QGTFTSD[4Pal]SQ[αMeL]LDKK([AEEA-γGlu-C18 diacid])AQ[αMe4Pal]AFIEWLIEGGPSSGAPPPSG[4Pal]-NH2 [Example 832]”, the EC50 stood at 18.6 nM at hGIPR [1]; 209 nM on hGLP-1R [2]; 1360 nM on human GcgR; 0.187 nM on hGIPR [3] (setting [5]); 1.07 nM at hGLP-1R [4] (setting [5]); 9.1 nM on hGcgR (setting [5]).

As to “Y[Aib]QGT[αMePhe(2-F)]TSD[4Pal][αMeS]ILLD[Orn]K([γGlu-γGlu-C18 diacid])AQ[Aib][Orn]FI[dE]YLIEGGPSSGEPPPEGEEE-NH2 [Example 606]”, the EC50 at hGIPR [1] came to 5.69 nM; on hGLP-1R [2], 53.1 nM; at human GcgR, 474 nM; at hGIPR [3] it was 0.17 nM; at hGLP-1R [4] it was 0.786 nM; at hGcgR it was 5.01 nM.

As for “H-Y[Aib]QGTFTSD[4Pal]SQ[αMeL]LD[Orn]K([dE-γGlu-C18 diacid])AQ[αMe4Pal]AFIQ[αMeY]LIA[Aib]GPSSGEPPPSGGGE-NH2 [Example 1130]”, the EC50 at hGIPR [1] was found to be 3.73 nM; on hGLP-1R [2] it was 44.5 nM; at human GcgR, 1240 nM; at hGIPR [3] (setting [5]), 0.0441 nM; at hGLP-1R [4] (setting [5]), 0.641 nM; at hGcgR (setting [5]), 13.3 nM.

Turning to “H-Y[Aib]QGT[αMePhe(2-F)]TSD[4Pal]SI[αMeL]LDKK([γGlu-γGlu-C18 diacid])AQ[Aib]AFIEYLEEGGPSSGEPPPSGTGE-NH2 [Example 624]”, the EC50 at hGIPR [1] was determined as 1.17 nM; at hGLP-1R [2], 63.4 nM; at human GcgR, 808 nM; on hGIPR [3] it was 0.0222 nM; at hGLP-1R [4], 0.95 nM; on hGcgR, 8.42 nM.

Take “Y[Aib]QGT[αMePhe(2-F)]TSD[4Pal][αMeS]ILLD[Orn]K([γGlu-γGlu-C18 diacid])AQ[Aib][Orn]FI[dE][αMeY]LQEGGPSSGEPPPEGAE-NH2 [Example 546]”: the EC50 at hGIPR [1] stood at 11.9 nM; at hGLP-1R [2] it was 34.4 nM; at human GcgR it was 225 nM; on hGIPR [3], 0.25 nM; at hGLP-1R [4], 0.517 nM; at hGcgR it was 3.67 nM.
